Results on 3 compounds are retold here after patent publication US20050209336A1, “EP2 receptor agonists” (priority 2003, published 2005).

Where two headings read alike, the source gives them in different places.

Test [1] deals with TNFα production by LPS-stimulated monocytes. The test can be described thus: Monocyte assay: LPS-induced TNFα secretion. Conditions: Homo sapiens, inhibition of TNFα production, LPS 100 ng/ml, 24 h, mean of three donors. The test is classed as cell-based. From the text:
Monocytes are peripheral mononuclear phagocytes that participate in inflammatory responses. TNFα production by monocytes plays an important role in inflammatory responses and can cause considerable tissue damage if the level remained unchecked. Inhibition of TNFα secretion by activated monocytes may provide an attractive therapy for the treatment of inflammatory conditions.
A 96 well in vitro assay was established to determine the effects of test compounds on LPS-induced TNFα secretion by human peripheral blood monocytes. The level of TNFα in assay supernatants was quantified using a standard sandwich ELISA.
Human peripheral blood mononuclear cells from healthy volunteers were isolated from whole blood by Ficoll-Hypaque density centrifugation and adherence to plastic. The non-adherent lymphocyte fraction was used to set up the lymphocyte assay and the adherent monocytes were then recovered by scraping and subsequently used in the monocyte assay.
For the monocyte assay, the cells were plated onto 96-well plates and pre-treated for 1 hour at 37° C./5% CO2 with the test compound (Peak 1, mixture 1 acid; Peak 1, mixture 2 acid; AH-13205 racemate), followed by the addition of LPS (100 ng/ml) to initiate the reaction. The plate was incubated for 24 hours and supernatants were recovered for the measurement of TNFα production by ELISA.

The target of test [2] is T1, human EP2 receptor (Homo sapiens, UniProt P43116).
T1 construct: expressed in transfected cells; host or cells: HEK cells (HEK-EP2)
T1 sequence (P43116 whole entry): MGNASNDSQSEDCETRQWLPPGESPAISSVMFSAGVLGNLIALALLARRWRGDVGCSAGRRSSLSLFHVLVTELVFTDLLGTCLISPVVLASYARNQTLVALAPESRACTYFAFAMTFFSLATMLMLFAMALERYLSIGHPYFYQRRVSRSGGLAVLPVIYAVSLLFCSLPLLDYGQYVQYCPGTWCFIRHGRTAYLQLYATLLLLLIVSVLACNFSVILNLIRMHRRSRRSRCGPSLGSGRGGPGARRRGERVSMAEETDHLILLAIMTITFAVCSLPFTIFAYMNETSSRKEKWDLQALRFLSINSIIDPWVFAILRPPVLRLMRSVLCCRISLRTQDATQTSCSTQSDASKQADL
The test is described as follows: cAMP production in HEK cells stably expressing the human EP2 receptor. The test is classed as cell-based. The conditions noted are these: 15 min stimulation, 4 experiments. The protocol: The following describes an in vitro assay to determine the effect of compounds on cyclase production, that is, to determine their functional efficacy at the EP2 receptor.
HEK cells stably expressing the human EP2 receptor were used for these assays. HEK-EP2 cells were cultured in 96-well, poly-L-lysine coated plates at a density of 50,000 cells/well, and grown to confluence in humidified […] at 37° C. Culture medium was DMEM supplemented with 10% foetal bovine serum, 100 U/ml penicillin, […], 2.5 µg/ml fungizone, 2 mM glutamine, 250 µg/ml geneticin and 200 µg/ml zeocin.
On reaching confluence, culture media was rinsed off using DMEM with no additions, before 175 µl assay buffer (DMEM containing 1 mM 3-isobutyl-1-methylxanthine and 3 µM indomethacin) was added to each well. This was allowed to incubate for 1 hr before the cells were stimulated with the test compounds (in triplicate) at final concentrations of 10^−9M to 10^−5M for 15 minutes. The assay was terminated by the addition of 25 µl 1M hydrochloric acid. Plates were then frozen for a minimum of 12 hours or until required for radioligand displacement assay.
Plates were thawed quickly at 37° C., and neutralised with 25 µl 1M sodium hydroxide. 30 µl of supernatant was transferred to 96-well Millipore (MAFNOB) plates coated with 0.1% Polyethylenimine. These supernatants were diluted by addition of 90[…]1 cAMP assay buffer (50 mM Tris, 5 mM EDTA, pH 7.0). A cAMP standard curve (10^−11M to 10^−5M) was constructed. 15 µl of 3′:5′-cAMP-dependent protein kinase (final concentration 8 µg/well), and 15 µl [^3H]-cAMP (final concentration 2 nM/well) were added to each well.
Plates were incubated on ice for 2 hours, before bound and free radiolabel were separated by vacuum filtration harvesting on the Millipore manifold, using ice cold water as the termination buffer. Filter plates were allowed to dry overnight, before addition of 50 µl Microscint. Radioactivity was determined using the Microbeta Trilux scintillation counter. cAMP accumulation was determined from the standard curve, and the values plotted as pmoles cAMP/well.
For orientation: Cyclic AMP is a second messenger, typically raised through Gs and lowered through Gi signalling.

Test [3] concerns the target T1, human EP2 receptor. The test can be described thus: Radioligand ([3H]PGE2) competition displacement binding, human EP2 receptor membranes. The conditions noted are these: for Ki: human EP2 membranes, [3H]PGE2 displacement, Cheng-Prusoff, mean of 4 experiments, read-out: pKi EP2 (converted). The protocol:
(§1) Membranes were prepared from cells stably transfected with human EP receptor cDNA. In brief, cells were cultured to confluency, scraped from culture flasks, and centrifuged (800 g, 8 minutes, 4° C.). Cells were twice washed in ice cold homogenisation buffer containing 10 mMTris-HCl, 1 mM EDTA.2Na, 250 mM sucrose, 1 mM PMSF, 0.3 mM indomethacin, pH 7.4, homogenised and re-centrifuged as before. The supernatant was stored on ice and pellets re-homogenised and re-spun. Supernatants were pooled and centrifuged at 40000 g, 10 minutes, 4° C. Resultant membrane pellets were stored at −80° C. until use.
(§2) For assay, membranes expressing human EP4, EP3, EP2 or EP1 receptors were incubated in Millipore (MHVBN45) plates containing assay buffer, radiolabelled [^3H]PGE2 and 0.1 to 10 000 nM concentrations of compounds. Incubations were performed at suitable temperatures and for suitable times to allow equilibrium to be reached. Non-specific binding was determined in the presence of 10 uM PGE2. Bound and free radiolabel was separated by vacuum manifold filtration using appropriate wash buffers, and bound radiolabel was determined by scintillation counting. Constituents of each of the buffers are included in table 4 below.
(§3) The affinity or pKi of each compound for each receptor was calculated from the concentration causing 50% radioligand displacement (IC50) using the Cheng-Prusoff equation: [formula]
(§4) This approach follows that set out in Kenakin, T. P., Pharmacologic analysis of drug receptor interaction. Raven Press, New York, 2nd edition.

In test [4] the target is T2, human EP3 receptor (Homo sapiens, UniProt P43115).
T2 construct: expressed in transfected cells
T2 sequence (P43115 1-390): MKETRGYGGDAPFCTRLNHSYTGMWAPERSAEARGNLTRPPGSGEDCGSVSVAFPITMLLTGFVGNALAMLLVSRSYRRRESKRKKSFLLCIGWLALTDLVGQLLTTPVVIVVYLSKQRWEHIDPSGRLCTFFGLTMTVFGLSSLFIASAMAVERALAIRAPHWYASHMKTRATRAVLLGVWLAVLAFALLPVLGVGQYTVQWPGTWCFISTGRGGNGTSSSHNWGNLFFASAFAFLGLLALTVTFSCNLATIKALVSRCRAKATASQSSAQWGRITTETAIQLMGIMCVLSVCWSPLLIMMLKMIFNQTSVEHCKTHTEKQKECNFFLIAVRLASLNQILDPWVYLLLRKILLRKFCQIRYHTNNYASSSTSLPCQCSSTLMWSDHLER
The test is described as follows: Radioligand ([3H]PGE2) competition displacement binding, human EP3 receptor membranes. The conditions noted are these: [3H]PGE2 displacement, read-out: pKi EP3 (converted). The protocol: as §1, §2, §3, §4

[5] abbreviates: log scale, read-out: Mean Log (EC50) (converted).

For orientation: EC50 means the concentration needed to bring the measured effect to its halfway point.

As to `CCCCCC(O)c1ccc(C2CCC(=O)C2CCCCCCC(=O)O)cc1` (racemic) [AH13205, (±)-trans-2-[4-(1-hydroxyhexyl)phenyl]-5-oxo-cyclopentaneheptanoic acid, reference compound], the EC50 in test [1] (read-out: Mean EC50) was 19800 nM; in test [1] (setting [5]), 19800 nM; in test [2] (setting [5]) it was 32.4 nM. Further, the Ki in test [3] is 398 nM; in test [4] it was 6310 nM.
As for `CCCCC[C@H](O)c1ccc([C@H]2CCC(=O)[C@@H]2CCCCCCC(=O)O)cc1` (single isomer, unassigned) [Peak 1, Mixture 1 acid], the EC50 is 1780 nM in test [1] (read-out: Mean EC50), 1780 nM in test [1] (setting [5]), 10 nM in test [2] (read-out: Mean EC50) and 9.77 nM in test [2] (setting [5]). The Ki is 79.4 nM in test [3] and 2000 nM in test [4].
As to `CCCCC[C@@H](O)c1ccc([C@H]2CCC(=O)[C@@H]2CCCCCCC(=O)O)cc1` (single isomer, unassigned) [Peak 1, Mixture 2 acid], the EC50 in test [1] (read-out: Mean EC50) is 6730 nM; in test [1] (setting [5]), 6730 nM; in test [2] (read-out: Mean EC50), 56 nM. Also, the “selectivity for EP2 over other EP receptors (from table 5)” value in test [3] (comparison among the stereoisomers) is “most selective”. The values for the Ki in test [3] and in test [4] were 126 nM and 15800 nM, respectively.
